Consider one substance from patent publication US8524861B2, “Treatment of bacterial infections” (priority 2004, dated 2013).

“Also recorded” adds a separate entry of the source.

What all share (assay type): cell-based
For data set [1], the system named is Saccharomyces cerevisiae yeast cells (strain GenT01). The data set can be described thus: Gentronix GreenScreen GC yeast genotoxicity assay. Conditions: concentrations up to and including 100 μM, FIGS. 6A-6C. On the procedure: A liquid handling robot is used to produce a serial dilution series of each test compound in a 96-well, black microplate with an optically clear base. […] In addition, a series of genotoxic and cytotoxic standards and non-toxic controls are run to provide internal quality control. The plates are covered with a breathable membrane and incubated overnight, without shaking, at 25° C.
After incubation, the microplates are uncovered and data collected using a Tecan Ultra 384 microplate reader. This instrument provides measurements of light absorbance and fluorescence in microplates; a standard fluorescein filter set (excitation 485/25 and emission 535/25) is used. Absorbance is read at 620 nm and is proportional to cell proliferation (which is lowered by toxic analytes). Fluorescence is proportional to the activity of the DNA repair system (increased by genotoxic analytes). The yeast cultures used are a genetically modified strain that express a green fluorescent protein whenever the cells carry out DNA damage repair. Fluorescence is normalised to the absorbance signal to correct for variation in cell yield caused by any cytolytic activity of the test compounds against the yeast cells. This produces a “fluorescence per cell” measurement termed “brightness”. In addition to the Gentronix Assay yeast strain (GenT01), a control Saccharomyces cerevisiae strain (GenC01) is also used, which is identical except for its ability to produce green fluorescent protein is disabled. This strain is used to provide a control to allow correction for substances which may be either autofluorescent themselves or which induce an autofluorescence in the yeast cells. The data collected is simply transferred into a Excel template where result evaluation sheets are automatically produced. The sheets contain the processed results in both a graphical and tabulated format, with automatic assessment of the result, i.e. positive or negative, and calculation of the lowest effective concentration (LEC), for both genotoxicity and cytotoxicity. […]

Data set [2] has as its system Streptococcus pneumoniae. On the procedure: The peptides were examined for antibacterial efficacy against Staphylococcus aureus. To test the efficacy of peptides, dilutions of test peptides or PBS (for use as a control) were prepared in LB broth, and 100 μl aliquots of these placed in 96-well plates. A vial of planktonic bacterial stock was thawed in a 37° C. incubator and diluted to the level previously determined which would produce log phase growth after overnight incubation (see above). 25 μl of this bacterial dilution was then added to the test wells (some wells containing LB broth without peptide were left without any bacterial inoculation, these being used as a blank). After overnight growth, the concentration of bacteria in individual wells was assessed by measuring absorbance at 620 nm, in a microplate spectrophotometer. The average absorbance of wells for specific concentrations of peptides was calculated, and from this the percentage inhibition (relative to untreated wells) was also calculated and plotted against concentration (along with an estimate of error on that % inhibition). […] The inventor constructed an expanded library of peptides derived from either apolipoprotein B or apolipoprotein E in order to further evaluate polypeptides in accordance with the invention. Further experiments were then conducted to investigate the antibacterial activity of this peptide library against the bacteria P. aeroginosa, S. aureus and S. pneumoniae. The methods used to determine the IC50 values for each peptide were as described in the Example 1.

Data set [3] deals with Staphylococcus aureus, Pseudomonas aeruginosa, and Streptococcus pneumoniae. Kind of data set: Antibacterial activity, overall statements over the test bacteria. The text has this:
The inventors conducted exhaustive experiments to assess the antibacterial activity of peptides from apolipoproteins and derivatives thereof. Peptides and derivatives from ApoE and ApoB were a particular focus. […] Example 1 illustrates the efficacy of the polypeptides according to the invention compared to apoE141-149 and apoB3359-3367 (i.e. non-tandem repeats) and other peptides derived from apolipoproteins.
The activity of polypeptides in accordance with the invention can be seen in Tables 5, 6, 7 and 8.
The peptides were examined for antibacterial efficacy against Staphylococcus aureus. To test the efficacy of peptides, dilutions of test peptides or PBS (for use as a control) were prepared in LB broth, and 100 μl aliquots of these placed in 96-well plates. A vial of planktonic bacterial stock was thawed in a 37° C. incubator and diluted to the level previously determined which would produce log phase growth after overnight incubation (see above). 25 μl of this bacterial dilution was then added to the test wells (some wells containing LB broth without peptide were left without any bacterial inoculation, these being used as a blank). After overnight growth, the concentration of bacteria in individual wells was assessed by measuring absorbance at 620 nm, in a microplate spectrophotometer. The average absorbance of wells for specific concentrations of peptides was calculated, and from this the percentage inhibition (relative to untreated wells) was also calculated and plotted against concentration (along with an estimate of error on that % inhibition).
The inventor constructed an expanded library of peptides derived from either apolipoprotein B or apolipoprotein E in order to further evaluate polypeptides in accordance with the invention. Further experiments were then conducted to investigate the antibacterial activity of this peptide library against the bacteria P. aeroginosa, S. aureus and S. pneumoniae. The methods used to determine the IC50 values for each peptide were as described in the Example 1.

With Ac-LRKLRKRLLLRKLRKRLL-NH2 [MU_10], the “Genotoxic response in test yeast strain (GenT01)” value in data set [1] was “failed to produce any genotoxic response”. The substance also had a half-inhibitory concentration (IC50) in data set [2] of 45 µM. In data set [3], the “Antibacterial activity, in words, bacterium not specified” value is given as “particularly effective; also recorded: much greater than that of MU43”.
